Columns and labels:
[1] = Cytotoxicity against human MT4 cells assessed as reduction in cell viability after 5 days by MTT assay; format: cell-based
[2] = test system: Human immunodeficiency virus 1; test: microbe, parasite or virus in culture; conditions: Human immunodeficiency virus 1, 3B, MT4, 120 h
Description: Antiviral activity against wild type HIV1 3B infected in human MT4 cells assessed as protection against virus-induced cytopathic effect after 5 days by MTT assay

[3] = test system: Human immunodeficiency virus 1; test: Antiviral activity against HIV1 harboring reverse transcriptase K103N mutant infected in human MT4 cells assessed as protection against virus-induced cytopathic effect after 5 days by MTT assay; format: functional, organism-based; conditions: Human immunodeficiency virus 1, MT4, 120 h
[4] = test system: Human immunodeficiency virus 1; test: Antiviral activity against HIV1 harboring reverse transcriptase Y188L mutant infected in human MT4 cells assessed as protection against virus-induced cytopathic effect after 5 days by MTT assay; format: functional, organism-based; conditions: Human immunodeficiency virus 1, MT4, 120 h
[5] = molecular target: Human immunodeficiency virus type 1 reverse transcriptase (Human immunodeficiency virus 1, UniProt Q72547, K103N/Y181C); test: Inhibition of HIV1 reverse transcriptase K103N/Y181C double mutant using poly (A)/oligo (dT)15 as template/primer assessed as decrease in biotin-dUTP incorporation after 1 hr by ELISA
[6] = test system: Human immunodeficiency virus 1; test: Antiviral activity against HIV1 harboring reverse transcriptase RES056 double mutant infected in human MT4 cells assessed as protection against virus-induced cytopathic effect after 5 days by MTT assay; format: functional, organism-based; conditions: Human immunodeficiency virus 1, MT4, 120 h
[7] = test system: Human immunodeficiency virus 2; test: Antiviral activity against HIV2 ROD infected in human MT4 cells assessed as protection against virus-induced cytopathic effect after 5 days by MTT assay; format: functional, organism-based; conditions: Human immunodeficiency virus 2, ISOLATE ROD, MT4, 120 h
[8] = molecular target: Human immunodeficiency virus type 1 reverse transcriptase (Human immunodeficiency virus 1, UniProt Q72547); test: Inhibition of wild type HIV1 reverse transcriptase using poly (A)/oligo (dT)15 as template/primer assessed as decrease in biotin-dUTP incorporation after 1 hr by ELISA
[9] = test system: Human immunodeficiency virus 1; test: Antiviral activity against HIV1 harboring reverse transcriptase E138K mutant infected in human MT4 cells assessed as protection against virus-induced cytopathic effect after 5 days by MTT assay; format: functional, organism-based; conditions: Human immunodeficiency virus 1, MT4, 120 h
in vitro = conditions: human, MT4 cells
Description: Selectivity index, ratio of CC50 for human MT4 cells to EC50 for wild type HIV1 3B infected in human MT4 cells

[10] = test system: Human immunodeficiency virus 1; test: Antiviral activity against HIV1 harboring reverse transcriptase F227L/V106A double mutant infected in human MT4 cells assessed as protection against virus-induced cytopathic effect after 5 days by MTT assay; format: functional, organism-based; conditions: Human immunodeficiency virus 1, MT4, 120 h
[11] = test system: Human immunodeficiency virus 1; test: Antiviral activity against HIV1 harboring reverse transcriptase L100I mutant infected in human MT4 cells assessed as protection against virus-induced cytopathic effect after 5 days by MTT assay; format: functional, organism-based; conditions: Human immunodeficiency virus 1, MT4, 120 h
[12] = test system: Human immunodeficiency virus 1; test: Antiviral activity against HIV1 harboring reverse transcriptase Y181C mutant infected in human MT4 cells assessed as protection against virus-induced cytopathic effect after 5 days by MTT assay; format: functional, organism-based; conditions: Human immunodeficiency virus 1, MT4, 120 h

| SMILES | CC50 at 120 h [1] [nM] | EC50 [2] [nM] | EC50 [3] [nM] | EC50 [4] [nM] | IC50 [5] [nM] | EC50 [6] [nM] | EC50 [7] [nM] | IC50 [8] [nM] | EC50 [9] [nM] | selectivity ratio (in vitro) | EC50 [10] [nM] | EC50 [11] [nM] | EC50 [12] [nM] |
| --- | --- | --- | --- | --- | --- | --- | --- | --- | --- | --- | --- | --- | --- |
| Cc1cc(/C=C/C#N)cc(C)c1Oc1cc(NCCN2CCN(C)CC2)nc(Nc2ccc(C#N)cc2)c1 | 7960 | 24.8 | 28 | > 7960 | 6240 | 1320 | > 7960 | 2190 | 770 | 321 | 5700 | 2020 | 1430 |
| Cc1cc(/C=C/C#N)cc(C)c1Oc1cc(NCCC#N)nc(Nc2ccc(C#N)cc2)n1 | 1000 | 1.36 | 1.2 | 31 | 100 | 14 | 320 | 20 | 6.5 | 736 | 190 | 11 | 9.9 |
| Cc1cc(/C=C/C#N)cc(C)c1Oc1cc(NCCN(C)C)nc(Nc2ccc(C#N)cc2)n1 | 3040 | 1.48 | 2.4 | 900 | 20 | 27 | > 3040 | 10 | 41 | 2050 | 310 | 10 | 9 |
| COCCNc1cc(Oc2c(C)cc(/C=C/C#N)cc2C)nc(Nc2ccc(C#N)cc2)n1 | 3190 | 1.56 | 1.7 | 51 | 230 | 42 | 1560 | 40 | 6.4 | 2040 | 220 | 9.3 | 9.4 |
| C=CCNc1cc(Oc2c(C)cc(/C=C/C#N)cc2C)nc(Nc2ccc(C#N)cc2)n1 | 3050 | 1.52 | 4.8 | 56 | 190 | 44 | > 3050 | 30 | 4.4 | 2000 | 530 | 21 | 13 |
| Cc1cc(/C=C/C#N)cc(C)c1Oc1cc(NCCN2CCOCC2)nc(Nc2ccc(C#N)cc2)c1 | 43200 | 1.68 | 1.7 | > 43200 | 6270 | 430 | > 42000 | 740 | 77 | 25600 | 4430 | 240 | 220 |
| Cc1cc(/C=C/C#N)cc(C)c1Oc1cc(NCCN2CCNCC2)nc(Nc2ccc(C#N)cc2)n1 | 3650 | 24.7 | 31 | > 3650 | 1120 | 770 | > 3650 | 440 | 940 | 148 | > 3650 | 790 | 610 |
| Cc1cc(/C=C/C#N)cc(C)c1Oc1cc(NCC2CCCO2)nc(Nc2ccc(C#N)cc2)n1 (configuration not stated) | > 268000 | 29 | 91 | > 268000 | 86900 | 44400 | > 268000 | 440 | 150 | > 9240 | 172000 | 2890 | 6970 |
| Cc1cc(/C=C/C#N)cc(C)c1Oc1cc(NC2CC2)nc(Nc2ccc(C#N)cc2)n1 | 3000 | 2.68 | 2.6 | 110 | 240 | 58 | > 3000 | 50 | 10 | 1120 | 350 | 23 | 35 |
| Cc1cc(/C=C/C#N)cc(C)c1Oc1cc(NCCCN2CCOCC2)nc(Nc2ccc(C#N)cc2)c1 | ≥ 4720 | 4.76 | 5.6 | ≥ 4720 | 7800 | 700 | ≥ 4720 | 970 | 110 | ≥ 992 | 5010 | 530 | 760 |
| Cc1cc(/C=C/C#N)cc(C)c1Oc1cc(Nc2ccc(C#N)cc2)nc(NC2CC2)c1 | 24800 | 3.35 | 8 | > 24800 | 5390 | 2820 | > 24800 | 350 | 27 | 7400 | 5350 | 170 | 210 |
| Cc1cc(/C=C/C#N)cc(C)c1Oc1cc(Cl)nc(Nc2ccc(C#N)cc2)n1 | 4310 | 1.69 | 2.4 | 48 | 80 | 44 | > 4310 | 20 | 9.3 | 2560 | 160 | 8.8 | 11 |
| Cc1cc(/C=C/C#N)cc(C)c1Oc1cc(NCC2CCCO2)nc(Nc2ccc(C#N)cc2)c1 (configuration not stated) | 73600 | 28.8 | 48 | > 73600 | 41200 | 31600 | > 73600 | 630 | 170 | 2560 | > 73600 | 2600 | 4540 |
| Cc1cc(/C=C/C#N)cc(C)c1Oc1cc(NCCN2CCOCC2)nc(Nc2ccc(C#N)cc2)n1 | 3540 | 1.54 | 1.7 | 98 | 340 | 21 | 1420 | 140 | 7.5 | 2310 | 180 | 10 | 7.2 |

Reference: ChEMBL document CHEMBL4219160, “The discovery of novel diarylpyri(mi)dine derivatives with high level activity against a wide variety of HIV-1 strains as well as against HIV-2” (Bioorg Med Chem, 2018)
